Measurements: ChEMBL document CHEMBL1130200, “Discovery of 3-aminobenzyloxycarbonyl as an N-terminal group conferring high affinity to the minimal phosphopeptide sequence recognized by the Grb2-SH2 domain” (J Med Chem, 1997)
Where a SMILES comes first, the peptide text is derived from it. [ ]: non-standard residue; d: D form. The star is where a group is joined. pY = N[C@@H](Cc1ccc(OP(=O)(O)O)cc1)C(=O)O; 2Abz = Nc1ccccc1C(=O)O; Cbz = O=C(OCc1ccccc1)*

These compounds were tested against Growth factor receptor-bound protein 2 (Homo sapiens, UniProt P62993) (assay: Inhibition of Grb2-SH2 domain binding to phospho-EGF receptor intracellular C-terminal domain).
Chain of Growth factor receptor-bound protein 2 (P62993 whole entry, the tested form may be a part): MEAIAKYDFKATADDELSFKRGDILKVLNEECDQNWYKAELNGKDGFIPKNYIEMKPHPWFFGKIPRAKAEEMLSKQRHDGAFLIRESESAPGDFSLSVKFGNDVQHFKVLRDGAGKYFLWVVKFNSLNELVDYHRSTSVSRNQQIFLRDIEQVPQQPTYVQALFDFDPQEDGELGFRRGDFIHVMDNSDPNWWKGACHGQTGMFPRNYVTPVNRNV

First: CC[C@H](C)[C@H](NC(=O)[C@H](Cc1ccc(OP(=O)(O)O)cc1)NC(=O)OCc1cccc(N)c1)C(=O)N[C@@H](CC(N)=O)C(N)=O
Second: CC[C@H](C)[C@H](NC(=O)[C@H](Cc1ccc(OP(=O)(O)O)cc1)NC(=O)OCc1ccccc1)C(=O)N[C@@H](CC(N)=O)C(N)=O (Cbz-[pY]-Ile-Asn-NH2)
The IC50 of the first is 98-fold lower: 0.065 µM for the first, 6.35 µM for the second. The first is the more potent here.

First: CC[C@H](C)[C@H](NC(=O)[C@H](Cc1ccc(OP(=O)(O)O)cc1)NC(C)=O)C(=O)N[C@@H](CC(N)=O)C(N)=O (Ac-[pY]-Ile-Asn-NH2)
Second: CC[C@H](C)[C@H](NC(=O)[C@@H](N)Cc1ccc(OP(=O)(O)O)cc1)C(=O)N[C@@H](CC(N)=O)C(N)=O (H-[pY]-Ile-Asn-NH2)
The IC50 of the first is 6.6-fold lower: 8.64 µM for the first, 56.9 µM for the second.

First: CC[C@H](C)[C@H](NC(=O)[C@H](Cc1ccc(OP(=O)(O)O)cc1)NC(=O)[C@@H](N)CCC(=O)O)C(=O)N[C@@H](CC(N)=O)C(N)=O (H-E[pY]IN-NH2)
Second: CC[C@H](C)[C@H](NC(=O)[C@H](Cc1ccc(OP(=O)(O)O)cc1)NC(=O)[C@H](CCC(=O)O)NC(=O)c1ccccc1N)C(=O)N[C@@H](CC(N)=O)C(N)=O (H-[2Abz]E[pY]IN-NH2)
The IC50 of the first is 360-fold higher: 7.9 µM for the first, 0.022 µM for the second.
